This assay in a line: Binding affinity to anti-CSF114 (Glc) antibody in serum from multiple sclerosis patient by ELISA.

Residues, ends and D or L forms follow the SMILES beside them. *: point of attachment. NH(β-D-Glc) = OC[C@H]1O[C@@H](N*)[C@H](O)[C@@H](O)[C@@H]1O

As usually defined, the IC50 is the concentration at which inhibition is half-maximal. Turning to `CSCC[C@H](NC(=O)[C@H](Cc1c[nH]c2ccccc12)NC(=O)CNC(=O)[C@H](Cc1ccc(O)cc1)NC(=O)[C@@H]1CCCN1C(=O)[C@H](C)NC(=O)[C@H](CC(C)C)NC(=O)[C@H](Cc1ccccc1)NC(=O)[C@@H](NC(=O)[C@H](CO)NC(=O)[C@H](Cc1cnc[nH]1)NC(=O)CNC(=O)[C@H](CC(=O)N[C@@H]1O[C@H](CO)[C@@H](O)[C@H](O)[C@H]1O)NC(=O)[C@H](CCCNC(=N)N)NC(=O)[C@H](CCC(=O)O)NC(=O)[C@@H](NC(=O)[C@H](CCCNC(=N)N)NC(=O)[C@@H]1CCCN1C(=O)[C@@H](N)[C@@H](C)O)C(C)C)C(C)C)C(=O)N[C@H](C(=O)N[C@@H](CCCCN)C(=O)O)C(C)C`, the IC50 stood at 137 nM. This lies in the sub-micromolar range. The figure for `CC(=O)N[C@@H](CCC(=O)O)C(=O)N[C@@H](CCCNC(=N)N)C(=O)N1CCC[C@H]1C(=O)N[C@@H](CC(=O)N[C@@H]1O[C@H](CO)[C@@H](O)[C@H](O)[C@H]1O)C(=O)N[C@@H](Cc1cnc[nH]1)C(=O)N[C@H](C(=O)N[C@H](C(N)=O)C(C)C)[C@@H](C)O` (Ac-ERPD(NH(β-D-Glc))HTV-NH2) is 14.9 nM. As for `CSCC[C@H](NC(=O)[C@H](Cc1c[nH]c2ccccc12)NC(=O)CNC(=O)[C@H](Cc1ccc(O)cc1)NC(=O)[C@@H]1CCCN1C(=O)[C@H](C)NC(=O)[C@H](CC(C)C)NC(=O)[C@H](Cc1ccccc1)NC(=O)[C@@H](NC(=O)[C@@H](NC(=O)[C@H](Cc1cnc[nH]1)NC(=O)[C@H](CC(=O)N[C@@H]1O[C@H](CO)[C@@H](O)[C@H](O)[C@H]1O)NC(=O)CNC(=O)[C@H](CCCNC(=N)N)NC(=O)[C@H](CCC(=O)O)NC(=O)[C@@H](NC(=O)[C@H](CCCNC(=N)N)NC(=O)[C@@H]1CCCN1C(=O)[C@@H](N)[C@@H](C)O)C(C)C)[C@@H](C)O)C(C)C)C(=O)N[C@H](C(=O)N[C@@H](CCCCN)C(=O)O)C(C)C` (H-TPRVERGD(NH(β-D-Glc))HTVFLAPYGWMVK-OH), the figure is 30.3 nM; as for `CSCC[C@H](NC(=O)[C@H](Cc1c[nH]c2ccccc12)NC(=O)CNC(=O)[C@H](Cc1ccc(O)cc1)NC(=O)[C@@H]1CCCN1C(=O)[C@H](C)NC(=O)[C@H](CC(C)C)NC(=O)[C@H](Cc1ccccc1)NC(=O)[C@@H](NC(=O)[C@@H](NC(=O)[C@H](Cc1cnc[nH]1)NC(=O)[C@H](CC(=O)N[C@@H]1O[C@H](CO)[C@@H](O)[C@H](O)[C@H]1O)NC(=O)[C@@H]1CCCN1C(=O)[C@H](CCCNC(=N)N)NC(=O)[C@H](CCC(=O)O)NC(=O)[C@@H](NC(=O)[C@H](CCCNC(=N)N)NC(=O)[C@@H]1CCCN1C(=O)[C@@H](N)[C@@H](C)O)C(C)C)[C@@H](C)O)C(C)C)C(=O)N[C@H](C(=O)N[C@@H](CCCCN)C(=O)O)C(C)C` (H-TPRVERPD(NH(β-D-Glc))HTVFLAPYGWMVK-OH), 11.8 nM.

Values taken from ChEMBL document CHEMBL1140050, “Designed glycopeptides with different beta-turn types as synthetic probes for the detection of autoantibodies as biomarkers of multiple sclerosis” (J Med Chem, 2008).
